Assays:
[1] = system: fracture healing; conditions: rats (Simon et al., 2002); cited from earlier work
[2] = system: fracture callous mRNA expression; assay: Quantitative real-time PCR of fracture callous tissue in mouse fracture model; format: in vivo, C57B/6 mice; conditions: for Col 1 mRNA levels: Day 7, compared with controls (data not shown); for Runx2 mRNA levels: Day 10, vs control (montelukast sodium P<0.05; zileuton P=0.06); for osteocalcin mRNA levels: Day 10, vs control (montelukast sodium P<0.05; zileuton P=0.07); for CysLT1 receptor mRNA levels in fracture callous: Day 10, control peak expression significantly higher; for Col 10a1 mRNA levels: Day 14, vs control (P<0.01)
Description: Fracture callous was harvested from animals (N=4) in the three treatment groups after sacrifice at days 7, 10, 14, and 21 and assayed for expression of chondrogenic markers by qPCR. See, FIG. 10. […] Although it is not necessary to understand the mechanism of an invention, it is believed that the expression of Sox9 and Col 2a mRNA indicate a cellular commitment to the chondrocyte phenotype.
(§1) C57B/6 mice were purchased (Charles River, Inc.Q3) and housed in the animal facility at the University of Massachusetts Medical School under IACUC approved protocol. Eight- to 9-week-old animals were used in the study.
(§2) Institutional approval was obtained and all procedures were undertaken in accordance with approved IACUC methods. Animals were administered general anesthesia using IP injections of ketamine and xylazine. A midline skin incision over the knee joint was utilized and a median parapatellar arthrotomy was performed to expose the trochlear groove. A pilot hole was made using a 25 gauge needle to gain access to the femoral canal. The central cannula from a 22 gauge spinal needle was inserted into the canal and passed to the proximal femur in retrograde fashion. The wire was backed out slightly, cut, and reinserted. Wounds were closed, and the femur was held in a fixed position while a drop weight from a standard height was used to deliver a fixed traumatic injury to the mid portion of the femur, generating a fracture via three point bending, and ensuring that fractures were generated using a traumatic method with reproducible energy of injury (Marturano et al., 2008).
Medications were suspended in 1% methylcellulose (Sigma, Inc.Q6) and delivered by direct intragastric delivery. […] As the study medications are both currently FDA approved for the treatment of reactive airway disease, our dosing frequency was based on current prescription guidelines. […] At the time the study began, zileuton was only approved for four times per Day dosing; as the drug needed to be administered by oral gavage and to maintain the normal sleep/awake cycle of the mouse colonies in the animal facilities, three doses of zileuton were dosed at 6-h intervals, with a 12-h break from 8 pm to 8 am. Control animals received 1% methylcellulose carrier only by a single daily oral gavage. The first dose of all medications was administered on post-fracture Day 1.
Mice were sacrificed on Days 7, 10, 14, and 21 post-fracture. The fractured limb was carefully dissected free and all overlying tissue was carefully removed to expose the fracture callous. Callous tissue alone was then placed in TRIzol reagent, avoiding the underlying cortical bone. The tissue was ground using a Polytron homogenizer and total RNA was isolated as per the manufacturer's instructions (InvitrogenQ11). Any potential DNA contamination was removed by RNase-free DNase treatment. The reverse transcription reaction was performed on […] of total RNA using the First Strand Synthesis Kit and random hexamer primers (Invitrogen). Relative transcript levels were measured by real-time PCR in a […] reaction volume on 96-well plate using ABI PRISM 7000 FAST sequence detection system (Applied BiosystemsQ12), following the recommended protocol for SYBR-Green (Applied Biosystems). Transcript levels were normalized with 18S ribosomal RNA levels using primers from Applied Biosystems and SYBR-Green master mix (Applied Biosystems). The primers used for amplification are described in Table 2.
Student's t-test was performed to analyze the significance of the data for gene expression and histomorphometric analysis.

[3] = system: fracture callous; assay: Mouse femur fracture model: histology and histomorphometry of fracture callous; format: in vivo, C57B/6 mice; conditions: for new bone formation by histomorphometry: Day 7 and Day 10, compared with controls; for amount of unmineralized chondroid matrix / callous size: Day 7 and Day 10 post fracture, vs control; for early stages of fracture repair (Safranin-O histology): animals sacrificed at Days 7, 10 and 14, oral gavage, montelukast sodium 1.5 mg/kg/Day, zileuton 45 mg/kg/Day; for fracture bridging and callous remodeling: by Day 21 (data not shown); for amount of chondroid (quantification) / percent chondroid (quantification) / total callous size (quantification): compared to control, montelukast sodium vs zileuton not significant
Description: Because leukotrienes have been reported as potent inflammatory agents and may have a role as negative regulators of mesenchymal stem cell (MSC) differentiation, it was reasonable to determine as to whether inhibiting the effect of the cysteinyl leukotrienes would enhance chondrocyte proliferation in a bone healing from a fracture. See, Example II. […] Day 0 post-fracture X-rays were taken while under anesthesia. See, FIG. 3. Subsequent X-rays were taken at Days 7, 10, 14, and 21 for all animals (N=4) until the time of sacrifice. […] Histological sections for Days 7, 10, and 14 post-fracture where the differences between treated and control groups were most readily identifiable at early time points. See, FIG. 4. For example, evidence of healing was readily visible between the two treatment groups versus control as early as Day 7.
as §1, §2
Medications were suspended in 1% methylcellulose (Sigma, Inc.Q6) and delivered by direct intragastric delivery. […] As the study medications are both currently FDA approved for the treatment of reactive airway disease, our dosing frequency was based on current prescription guidelines. Montelukast sodium was administered once daily by oral gavage. At the time the study began, zileuton was only approved for four times per Day dosing; as the drug needed to be administered by oral gavage and to maintain the normal sleep/awake cycle of the mouse colonies in the animal facilities, three doses of zileuton were dosed at 6-h intervals, with a 12-h break from 8 pm to 8 am. Control animals received 1% methylcellulose carrier only by a single daily oral gavage. The first dose of all medications was administered on post-fracture Day 1.
All animals were examined pre- and post-fracture using live fluoroscopy with an inverted Xiscan 1000 fluoroscope. Pre-fracture imaging was used to confirm correct positioning of the stabilizing wire, and post-fracture imaging was used to confirm correct fracture location and configuration. Additionally, standard radiographs were obtained in all animals immediately post-fracture with a high resolution MX-20 Faxitron on mammography film. Animals were anesthetized for additional X-rays to document fracture repair at 7, […] Days post-fracture. Animals were sacrificed immediately post-fracture if the fracture was not diaphyseal and transverse.
Fracture specimens were harvested at various times (7, 10, 14, and 21 Days) and fixed in a solution of 4% paraformaldehyde, 0.1% CPC in PBS for 16 h at room temperature, and then embedded in paraffin after decalcification. Embedded tissues were sectioned into […] slices, mounted on silane-coated glass slides (FisherQ7), de-paraffinized, and re-hydrated. […]

[4] = Day 10, vs control (P<0.05 for zileuton)

Row | CysLT1 receptor mRNA levels in fracture callous [2] | Structure (SMILES) | fracture healing (radiographic, histological, mechanical testing) [1] | Col 1 mRNA levels [2] | Col 2a1 mRNA expression [2, 4] | SOX9 mRNA expression [2, 4] | Runx2 mRNA levels [2] | osteocalcin mRNA levels [2] | Col 10a1 mRNA levels [2] | Col 2a1 mRNA expression ([2]; Day 14, vs control (P<0.05)) | time of peak Sox9 mRNA levels ([2]; controls peak at day 7) | new bone formation by histomorphometry [3] | amount of unmineralized chondroid matrix [3] | callous size [3] | early stages of fracture repair (Safranin-O histology) [3] | fracture bridging and callous remodeling [3] | amount of chondroid (quantification) [3] | percent chondroid (quantification) [3] | total callous size (quantification) [3] | histone gene expression by qRT-PCR ([2]; data not shown)
1 |  | CS(=O)(=O)c1ccc(C2=C(c3ccccc3)C(=O)OC2)cc1 [rofecoxib] | fracture healing failed |  |  |  |  |  |  |  |  |  |  |  |  |  |  |  |  | 
2 | low | CC(C)(O)c1ccccc1CCC(SCC1(CC(=O)O)CC1)c1cccc(C=Cc2ccc3ccc(Cl)cc3n2)c1 (centres unmarked) [montelukast sodium, [1-[[1-[3-[2-[(7-chloro-2-quinolyl)]vinyl]phenyl]-3-[2-(1-hydroxy-1-methyl-1-ethyl)phenyl]-propyl]sulfanylmethyl]-cyclopropyl]acetic acid] |  | decrease | not seen | not seen | higher | elevated | higher | elevated | peak later than controls at Day 10 | significantly greater | markedly increased | dramatically larger | enhances | bridged the ends of the fracture and remodeled the callous to woven bone | significantly greater | significantly greater | significantly greater | 
3 | low | CC(c1cc2ccccc2s1)N(O)C(N)=O (centres unmarked) [zileuton] |  | decrease | elevated | elevated | increased | elevated | significantly higher |  |  | significantly greater | markedly increased | dramatically larger | enhances | bridged the ends of the fracture and remodeled the callous to woven bone | significantly greater | significantly greater | significantly greater | higher
4 |  | Cc1ccc(-c2cc(C(F)(F)F)nn2-c2ccc(S(N)(=O)=O)cc2)cc1 [celecoxib] | fracture healing failed |  |  |  |  |  |  |  |  |  |  |  |  |  |  |  |  | 

From patent US20110021560A1, “Compositions And Methods For Regulating Chondrocyte Proliferation In Bone Disorders” (University of Massachusetts Medical School, priority 2009, published 2011)
